SMILES strings stand for the structures.

Consider 34 compounds from patent publication US12071404B2, “Aza (indole)-, benzothiophene-, and benzofuran-3-sulfonamides” (UCB Pharma GmbH, priority 2016, dated 2024).

For experiment [1], the target named is T1, GPR17 (Homo sapiens, UniProt Q13304). Put plainly: cAMP accumulation functional assay (HTRF, Schild analysis). Type of experiment: cell-based. Further details: host or cells: Flp-In T-REx CHO. As to conditions: CHO hGPR17 cells, Schild analysis vs MDL29,951, 5 μM forskolin, read-out: cAMP assay pA2 (converted). The essentials:
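CHO Flp-In T-REx cells with doxycycline-induced human GPR17 were preincubated 30 min at room temperature in HBSS-HEPES pH 7.4 with antagonist. cAMP was then measured by HTRF after 60 min. MDL29,951 pEC50 shifts gave dose ratios, and Schild analysis gave pA2.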
In general terms: Changes in cAMP serve as a functional read-out for many G protein-coupled receptors.

Experiment [2] addresses T1, GPR17. The experiment can be described thus: Calcium mobilization functional assay (GPR17 Ca2+ assay). The arrangement: host or cells: Flp-In T-REx CHO. The class given is cell-based. The conditions noted are these: CHO hGPR17 cells, inhibition of 50 nM MDL29,951, Calcium 5 dye, FLIPR; read-out: Ca2+ assay pIC50 (converted). The essentials: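 Flp-In T-REx CHO cells stably expressing human GPR17, doxycycline-induced (1 μg/mL, 16-20 h), loaded 60 min with Calcium 5 dye. Inhibition by varying test-compound concentrations of the 50 nM MDL29,951 agonist response was read by fluorescence over time at room temperature. pIC50 came from 4-parameter logistic fitting.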
For orientation: A change in cytosolic calcium serves as a functional read-out for many receptors and channels.

T1 sequence (Q13304 whole entry): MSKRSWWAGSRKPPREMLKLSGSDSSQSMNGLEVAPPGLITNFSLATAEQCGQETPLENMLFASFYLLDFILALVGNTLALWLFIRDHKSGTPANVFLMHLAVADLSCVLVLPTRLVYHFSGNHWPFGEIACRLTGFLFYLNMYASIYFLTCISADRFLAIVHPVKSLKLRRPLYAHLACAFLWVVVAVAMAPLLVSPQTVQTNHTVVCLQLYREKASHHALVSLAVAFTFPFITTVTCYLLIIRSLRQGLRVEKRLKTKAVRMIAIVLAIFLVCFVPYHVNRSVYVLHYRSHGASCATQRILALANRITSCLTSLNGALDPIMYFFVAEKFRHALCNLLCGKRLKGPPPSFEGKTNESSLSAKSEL

For `CC(=O)c1ccc(NS(=O)(=O)c2c[nH]c3cc(Cl)ccc23)c(F)c1` [Compound I-219, N-(4-acetyl-2-fluorophenyl)-6-chloro-1H-indole-3-sulfonamide], in experiment [1], the Kb is 3.16 to 31.6 nM. Moreover, the IC50 in experiment [2] was 3.16 to 31.6 nM.
Regarding `O=S(=O)(Nc1cc(F)c(Br)cc1F)c1c[nH]c2cc(Cl)ccc12` [Compound I-213, N-(4-bromo-2,5-difluorophenyl)-6-chloro-1H-indole-3-sulfonamide], the Kb in experiment [1] was less than 3.16 nM. Besides, in experiment [2], the IC50 was less than 3.16 nM.
Take `CS(=O)(=O)c1ccc2c(S(=O)(=O)Nc3ccc(Cl)cc3F)c[nH]c2c1` [Compound I-50, N-(4-chloro-2-fluorophenyl)-6-(methylsulfonyl)-1H-indole-3-sulfonamide]: the Kb in experiment [1] is 3.16 to 31.6 nM. Further, the IC50 in experiment [2] is 3.16 to 31.6 nM.
In the case of `O=S(=O)(Nc1nc(F)c(Cl)cc1F)c1c[nH]c2c1ccc1ccccc12` [Compound I-304, N-(5-chloro-3,6-difluoropyridin-2-yl)-1H-benzo[g]indole-3-sulfonamide], in experiment [1], the Kb was less than 3.16 nM. Further, in experiment [2], the IC50 is less than 3.16 nM.
As for `O=S(=O)(Nc1cc(F)c(Cl)cc1F)c1c[nH]c2cc(Cl)c(F)cc12` [Compound I-263, 6-chloro-N-(4-chloro-2,5-difluorophenyl)-5-fluoro-1H-indole-3-sulfonamide], the Kb in experiment [1] is 3.16 to 31.6 nM. Moreover, in experiment [2], the IC50 is 3.16 to 31.6 nM.
Turning to `O=S(=O)(Nc1cccc2nsnc12)c1c[nH]c2c1ccc1ccccc12` [Compound I-155, N-(2,1,3-benzothiadiazol-4-yl)-1H-benzo[g]indole-3-sulfonamide], the Kb in experiment [1] was less than 3.16 nM. For the same compound, the IC50 in experiment [2] is 3.16 to 31.6 nM.
For the compound `N#Cc1c(Cl)ccc2c(S(=O)(=O)Nc3cc(F)c(Cl)cc3F)c[nH]c12` [Compound I-256, 6-chloro-N-(4-chloro-2,5-difluorophenyl)-7-cyano-1H-indole-3-sulfonamide], the Kb in experiment [1] was less than 3.16 nM. Moreover, the IC50 in experiment [2] is less than 3.16 nM.
Take `O=S(=O)(Nc1cccc2n[se]nc12)c1c[nH]c2cc(Cl)ccc12` [Compound I-142, N-(2,1,3-benzoselenadiazol-4-yl)-6-chloro-1H-indole-3-sulfonamide]: the Kb in experiment [1] is less than 3.16 nM. In addition, in experiment [2], the IC50 was less than 3.16 nM.
With `COc1nc(NS(=O)(=O)c2csc3cc(Cl)ccc23)c(F)cc1Cl` [Compound I-314, 6-chloro-N-(5-chloro-3-fluoro-6-methoxypyridin-2-yl)-1-benzothiophene-3-sulfonamide], the Kb in experiment [1] is 3.16 to 31.6 nM. For the same compound, the IC50 in experiment [2] is 3.16 to 31.6 nM.
Turning to `COc1nc(NS(=O)(=O)c2c[nH]c3cc(N=[N+]=[N-])ccc23)c(F)cc1CC#N` [Compound I-353, 6-azido-N-[5-(cyanomethyl)-3-fluoro-6-methoxypyridin-2-yl]-1H-indole-3-sulfonamide], the Kb in experiment [1] is less than 3.16 nM. In addition, in experiment [2], the IC50 was less than 3.16 nM.
On to `N#Cc1ccc(NS(=O)(=O)c2c[nH]c3cc(Br)ccc23)c(F)c1` [Compound I-114, 6-bromo-N-(4-cyano-2-fluorophenyl)-1H-indole-3-sulfonamide], for which the Kb in experiment [1] was less than 3.16 nM. Besides, in experiment [2], the IC50 was less than 3.16 nM.
Turning to `O=S(=O)(Nc1ncc(F)cc1F)c1c[nH]c2cc(Cl)ccc12` [Compound I-302, 6-chloro-N-(3,5-difluoropyridin-2-yl)-1H-indole-3-sulfonamide], the Kb in experiment [1] was 3.16 to 31.6 nM. In addition, the IC50 in experiment [2] was 3.16 to 31.6 nM.
On to `N#Cc1cc(F)c(NS(=O)(=O)c2c[nH]c3c2ccc2ccccc23)cc1F` [Compound I-151, N-(4-cyano-2,5-difluorophenyl)-1H-benzo[g]indole-3-sulfonamide], for which, in experiment [1], the Kb was less than 3.16 nM. The IC50 in experiment [2] is less than 3.16 nM.
Regarding `N#Cc1ccc(NS(=O)(=O)c2c[nH]c3cc(Cl)ccc23)cc1Cl` [Compound I-181, 6-chloro-N-(3-chloro-4-cyanophenyl)-1H-indole-3-sulfonamide], the Kb in experiment [1] was 3.16 to 31.6 nM. In addition, the IC50 in experiment [2] was 3.16 to 31.6 nM.
With `COc1ccc2c(S(=O)(=O)Nc3ccc(Br)cc3F)c[nH]c2c1` [Compound I-293, N-(4-bromo-2-fluorophenyl)-6-methoxy-1H-indole-3-sulfonamide], in experiment [1], the Kb is 3.16 to 31.6 nM. Further, the IC50 in experiment [2] was 3.16 to 31.6 nM.
For `O=S(=O)(Nc1cc(Cl)ccc1F)c1c[nH]c2cc(Cl)ccc12` [Compound I-4, 6-chloro-N-(5-chloro-2-fluorophenyl)-1H-indole-3-sulfonamide], the Kb in experiment [1] was 3.16 to 31.6 nM. Moreover, the IC50 in experiment [2] was more than 31.6 nM.
For `Cc1ccc2c(S(=O)(=O)Nc3ccc(Br)cc3F)c[nH]c2c1` [Compound I-173, N-(4-bromo-2-fluorophenyl)-6-methyl-1H-indole-3-sulfonamide], in that order: 3.16 to 31.6 nM and 3.16 to 31.6 nM.
Turning to `O=C1NCc2cc(F)c(NS(=O)(=O)c3c[nH]c4cc(Cl)ccc34)cc21` [Compound I-265, 6-chloro-N-(6-fluoro-3-oxo-2,3-dihydro-1H-isoindol-5-yl)-1H-indole-3-sulfonamide], in experiment [1], the Kb was more than 31.6 nM. In addition, the IC50 in experiment [2] is 3.16 to 31.6 nM.
As for `COc1cc(NS(=O)(=O)c2c[nH]c3cc(Cl)ccc23)ccc1C#N` [Compound I-124, 6-chloro-N-(4-cyano-3-methoxyphenyl)-1H-indole-3-sulfonamide], in experiment [1], the Kb is 3.16 to 31.6 nM. Moreover, the IC50 in experiment [2] was 3.16 to 31.6 nM.
As for `O=S(=O)(Nc1cc(F)c(Cl)cc1F)c1c[nH]c2cc(Cl)c(Br)cc12` [Compound I-248, 5-bromo-6-chloro-N-(4-chloro-2,5-difluorophenyl)-1H-indole-3-sulfonamide], the Kb in experiment [1] was 3.16 to 31.6 nM. The IC50 in experiment [2] was 3.16 to 31.6 nM.
On to `N#Cc1cc(F)c(NS(=O)(=O)c2c[nH]c3cc(Cl)ccc23)c(F)c1` [Compound I-182, 6-chloro-N-(4-cyano-2,6-difluorophenyl)-1H-indole-3-sulfonamide], for which, in experiment [1], the Kb is 3.16 to 31.6 nM. In addition, in experiment [2], the IC50 is less than 3.16 nM.
In the case of `O=S(=O)(Nc1cc(F)c(OCC(F)F)cc1F)c1c[nH]c2cc(Cl)ccc12` [Compound I-246, 6-chloro-N-[4-(2,2-difluoroethoxy)-2,5-difluorophenyl]-1H-indole-3-sulfonamide], the Kb in experiment [1] is less than 3.16 nM. Besides, the IC50 in experiment [2] is less than 3.16 nM.
In the case of `O=S(=O)(Nc1cc(F)c(F)cc1F)c1c[nH]c2c1ccc1ccccc12` [Compound I-52, N-(2,4,5-trifluorophenyl)-1H-benzo[g]indole-3-sulfonamide], in experiment [1], the Kb was 3.16 to 31.6 nM. Further, the IC50 in experiment [2] is more than 31.6 nM.
On to `O=S(=O)(Nc1cc(F)c(I)cc1F)c1c[nH]c2cc(Cl)ccc12` [Compound I-308, 6-chloro-N-(2,5-difluoro-4-iodophenyl)-1H-indole-3-sulfonamide], for which, in experiment [1], the Kb was less than 3.16 nM. The IC50 in experiment [2] was less than 3.16 nM.
As for `COc1nc(NS(=O)(=O)c2c[nH]c3c(Br)c(Cl)ccc23)c(F)cc1Cl` [Compound I-321, 7-bromo-6-chloro-N-(5-chloro-3-fluoro-6-methoxypyridin-2-yl)-1H-indole-3-sulfonamide], in experiment [1], the Kb was less than 3.16 nM. Besides, the IC50 in experiment [2] was less than 3.16 nM.
`N#Cc1cc(F)c(NS(=O)(=O)c2c[nH]c3cc(C(F)(F)F)ccc23)cc1F` [Compound I-184, N-(4-cyano-2,5-difluorophenyl)-6-(trifluoromethyl)-1H-indole-3-sulfonamide]: the Kb in experiment [1] was less than 3.16 nM. In addition, the IC50 in experiment [2] is less than 3.16 nM.
Take `O=S(=O)(Nc1cccc2nsnc12)c1c[nH]c2cc(Cl)ccc12` [Compound I-109, N-(2,1,3-benzothiadiazol-4-yl)-6-chloro-1H-indole-3-sulfonamide]: in experiment [1], the Kb was 3.16 to 31.6 nM. Further, the IC50 in experiment [2] is less than 3.16 nM.
For the compound `O=S(=O)(Nc1cc(F)c(Cl)cc1F)c1c[nH]c2c(OCC(F)F)c(Cl)ccc12` [Compound I-262, 6-chloro-N-(4-chloro-2,5-difluorophenyl)-7-(2,2-difluoroethoxy)-1H-indole-3-sulfonamide], the Kb in experiment [1] was less than 3.16 nM. Also, the IC50 in experiment [2] was 3.16 to 31.6 nM.
Regarding `O=S(=O)(Nc1nc(F)ccc1F)c1c[nH]c2cc(Cl)ccc12` [Compound I-200, 6-chloro-N-(3,6-difluoropyridin-2-yl)-1H-indole-3-sulfonamide], in experiment [1], the Kb was 3.16 to 31.6 nM. In experiment [2], the IC50 is 3.16 to 31.6 nM.
With `O=S(=O)(Nc1ccc(I)cc1F)c1c[nH]c2cc3c(cc12)OCO3` [Compound I-44, N-(2-fluoro-4-iodophenyl)-5H-[1,3]dioxolo[4,5-f]indole-7-sulfonamide], the Kb in experiment [1] is 3.16 to 31.6 nM. The IC50 in experiment [2] was more than 31.6 nM.
Regarding `N#Cc1ccc2c(S(=O)(=O)Nc3cc(F)c(OC(F)F)cc3F)c[nH]c2c1` [Compound I-282, 6-cyano-N-[4-(difluoromethoxy)-2,5-difluorophenyl]-1H-indole-3-sulfonamide], the Kb in experiment [1] is 3.16 to 31.6 nM. Besides, in experiment [2], the IC50 was 3.16 to 31.6 nM.
With `O=S(=O)(Nc1cccc2c1OCO2)c1c[nH]c2nc(Cl)ccc12` [Compound I-96, N-(1,3-benzodioxol-4-yl)-6-chloro-1H-pyrrolo[2,3-b]pyridine-3-sulfonamide], the Kb in experiment [1] is more than 31.6 nM. Also, the IC50 in experiment [2] was 3.16 to 31.6 nM.
For `O=S(=O)(Nc1cc(F)c(Br)cc1F)c1coc2cc(Cl)ccc12` [Compound I-259, N-(4-bromo-2,5-difluorophenyl)-6-chloro-1-benzofuran-3-sulfonamide], in that order: less than 3.16 nM and 3.16 to 31.6 nM.
On the same counts, the results for `COC/C=C/c1cc(F)c(NS(=O)(=O)c2c[nH]c3cc(Cl)ccc23)nc1F` [Compound I-252, 6-chloro-N-{3,6-difluoro-5-[(1E)-3-methoxyprop-1-en-1-yl]pyridin-2-yl}-1H-indole-3-sulfonamide] are less than 3.16 nM and less than 3.16 nM.
